Patent US9161990B2, “Hydrochloride salts of a glycopeptide-cephalosporin antbiotic compond” (THERAVANCE BIOPHARMA ANTIBIOTICS IP, LLC, priority 2013, dated 2015)
Structures can show the parent of a compound that is named as a salt.

Columns and labels:
[1] = Storage stability of lyophilized hydrochloride salts (purity by HPLC); type: physicochemical
Description: (§1) All solvents were HPLC grade and were purchased from Honeywell Burdick & Jackson (Muskegon, Mich. 49442). Phosphoric acid (85% w/w) and sodium dihydrogen phosphate were HPLC grade and were purchased from Fluka (Sigma-Aldrich, St. Louis, Mo. 63103). All reagents were used without further purification.
(§2) Test samples were filtered through a 0.2 μm polyvinylidene fluoride (PVDF) filter before analysis and the first 1 mL was discarded.
(§3) Test sample purity was determined based on the integrated peak area (area-under-the-curve or AUC) for the compound as a percentage of all integrated peaks. The concentration (assay value) of the compound in a test sample was determined by comparison with a reference standard.
(§4) One rack was stored protected from light in a drawer at room temperature and the other rack was stored in a refrigerator at 2 to 8° C. A representative vial of each type of stability sample was analyzed by HPLC after storage for 1, 3, 6 and 12 months to determine purity.

[2] = Storage stability of hydrochloride salts in a lyophilized composition containing sucrose and glycine (purity by HPLC); type: physicochemical; conditions: for Purity (HPLC area percent) / Δ (change in percent purity from time = 0): composition containing sucrose and glycine; for decrease in purity: formulated with sucrose and glycine
Description: as §1, §2, §3, §4

[3] = refrigerated temperature (2 to 8° C.), 1 month, monohydrochloride
[4] = refrigerated temperature (2 to 8° C.), 3 months, monohydrochloride
[5] = refrigerated temperature (2 to 8° C.), 6 months, monohydrochloride
[6] = refrigerated temperature (2 to 8° C.), 12 months, monohydrochloride
[7] = room temperature, 1 month, listed as Mono HCl, monohydrochloride
[8] = room temperature, 1 month, monohydrochloride
[9] = room temperature, 3 months, listed as Mono HCl, monohydrochloride
[10] = room temperature, 3 months, monohydrochloride
[11] = room temperature, 6 months, listed as Mono HCl, monohydrochloride
[12] = room temperature, 6 months, monohydrochloride
[13] = room temperature, 12 months, listed as Mono HCl, monohydrochloride
[14] = room temperature, 12 months, monohydrochloride
[15] = stored at 2 to 8° C. for 12 months, listed as monohydrochloride salt, monohydrochloride
[16] = stored at room temperature for 12 months, listed as monohydrochloride salt, monohydrochloride
[17] = refrigerated temperature (2 to 8° C.), 1 month, Trihydrochloride
[18] = refrigerated temperature (2 to 8° C.), 3 months, Trihydrochloride
[19] = refrigerated temperature (2 to 8° C.), 6 months, Trihydrochloride
[20] = refrigerated temperature (2 to 8° C.), 12 months, Trihydrochloride
[21] = refrigerated temperature (2 to 8° C.), time 0 months, Trihydrochloride
[22] = room temperature, 1 month, Trihydrochloride
[23] = room temperature, 3 months, Trihydrochloride
[24] = room temperature, 6 months, Trihydrochloride
[25] = room temperature, 12 months, Trihydrochloride
[26] = room temperature, time 0 months, Trihydrochloride
[27] = stored at 2 to 8° C. for 12 months, listed as trihydrochloride salt, Trihydrochloride

Compound: CN[C@H](CC(C)C)C(=O)N[C@H]1C(=O)N[C@@H](CC(N)=O)C(=O)N[C@H]2C(=O)N[C@H]3C(=O)N[C@H](C(=O)N[C@H](C(=O)NCCCO/N=C(\C(=O)N[C@@H]4C(=O)N5C(C(=O)[O-])=C(C[n+]6ccccc6)CS[C@H]45)c4nc(N)sc4Cl)c4cc(O)cc(O)c4-c4cc3ccc4O)[C@H](O)c3ccc(c(Cl)c3)Oc3cc2cc(c3O[C@@H]2O[C@H](CO)[C@@H](O)[C@H](O)[C@H]2O[C@H]2C[C@](C)(N)[C@H](O)[C@H](C)O2)Oc2ccc(cc2Cl)[C@H]1O [Monohydrochloride, 26-[[[3-[[(Z)-[1-(2-amino-5-chloro-4-thiazolyl)-2-[[(6R,7R)-2-carboxy-8-oxo-3-(pyridiniomethyl)-5-thia-1-azabicyclo[4.2.0]oct-2-en-7-yl]amino]-2-oxoethylidene]amino]oxy]propyl]amino]carbonyl]-26-decarboxyvancomycin monohydrochloride]
- Purity (HPLC area percent) [1, 3]: 90.0%
- Δ (change in percent purity from time = 0) [1, 3]: −0.4%
- Purity (HPLC area percent) [1, 4]: 90.2%
- Δ (change in percent purity from time = 0) [1, 4]: −0.2%
- Δ (change in percent purity from time = 0) [1, 5]: 0.0%
- Purity (HPLC area percent) [1, 6]: 87.4%
- Δ (change in percent purity from time = 0) [1, 6]: −3.0%
- Purity (HPLC area percent) [1, 7]: 89.3%
- Δ (change in percent purity from time = 0) [1, 7]: −1.1%
- Purity (HPLC area percent) [1, 8]: 89.3%
- Δ (change in percent purity from time = 0) [1, 8]: −1.1%
- Purity (HPLC area percent) [1, 9]: 82.0%
- Δ (change in percent purity from time = 0) [1, 9]: −8.4%
- Purity (HPLC area percent) [1, 10]: 82.0%
- Δ (change in percent purity from time = 0) [1, 10]: −8.4%
- Purity (HPLC area percent) [1, 11]: 79.9%
- Δ (change in percent purity from time = 0) [1, 11]: −10.5%
- Purity (HPLC area percent) [1, 12]: 79.9%
- Δ (change in percent purity from time = 0) [1, 12]: −10.5%
- Purity (HPLC area percent) [1, 13]: 67.0%
- Δ (change in percent purity from time = 0) [1, 13]: −23.4%
- Purity (HPLC area percent) [1, 14]: 67.0%
- Δ (change in percent purity from time = 0) [1, 14]: −23.4%
- decrease in purity [1, 15]: 3.0%
- decrease in purity [1, 16]: 23.4%
- storage stability compared to the trihydrochloride salt ([1]; stored for 12 months at either room temperature or 2 to 8° C.): significantly more stable than the trihydrochloride salt
- Purity (HPLC area percent) [2, 3]: 90.7%
- Δ (change in percent purity from time = 0) [2, 3]: 0.3%
- Purity (HPLC area percent) [2, 4]: 88.9%
- Δ (change in percent purity from time = 0) [2, 4]: −1.5%
- Purity (HPLC area percent) [2, 5]: 91.7%
- Δ (change in percent purity from time = 0) [2, 5]: 1.3%
- Purity (HPLC area percent) [2, 6]: 88.5%
- Δ (change in percent purity from time = 0) [2, 6]: −1.9%
- Purity (HPLC area percent) [2, 8]: 89.0%
- Δ (change in percent purity from time = 0) [2, 8]: −1.4%
- Δ (change in percent purity from time = 0) [2, 10]: −3.5%
- Δ (change in percent purity from time = 0) [2, 12]: −2.5%
- Δ (change in percent purity from time = 0) [2, 14]: −8.9%
- decrease in purity [2, 15]: 1.9%
- decrease in purity [2, 16]: 8.9%
- storage stability when formulated with sucrose and glycine ([2]; stored at room temperature for 12 months, compared to the salt alone): more stable

Compound: CN[C@H](CC(C)C)C(=O)NC1C(=O)N[C@@H](CC(N)=O)C(=O)N[C@H]2C(=O)N[C@H]3C(=O)N[C@H](C(=O)N[C@H](C(=O)NCCCO/N=C(\C(=O)N[C@@H]4C(=O)N5C(C(=O)[O-])=C(C[n+]6ccccc6)CS[C@H]45)c4nc(N)sc4Cl)c4cc(O)cc(O)c4-c4cc3ccc4O)[C@H](O)c3ccc(c(Cl)c3)Oc3cc2cc(c3O[C@@H]2O[C@H](CO)[C@@H](O)[C@H](O)[C@H]2O[C@H]2C[C@](C)(N)[C@H](O)[C@H](C)O2)Oc2ccc(cc2Cl)[C@H]1O (stereo partly drawn) [Trihydrochloride, 26-[[[3-[[(Z)-[1-(2-Amino-5-chloro-4-thiazolyl)-2-[[(6R,7R)-2-carboxy-8-oxo-3-(pyridiniomethyl)-5-thia-1-azabicyclo[4.2.0]oct-2-en-7-yl]amino]-2-oxoethylidene]amino]oxy]propyl]amino]carbonyl]-26-decarboxyvancomycin Trihydrochloride, reference compound]
- Purity (HPLC area percent) [1, 17]: 84.0%
- Δ (change in percent purity from time = 0) [1, 17]: −0.5%
- Purity (HPLC area percent) [1, 18]: 80.7%
- Δ (change in percent purity from time = 0) [1, 18]: −3.8%
- Purity (HPLC area percent) [1, 19]: 79.4%
- Δ (change in percent purity from time = 0) [1, 19]: −5.1%
- Purity (HPLC area percent) [1, 20]: 76.0%
- Δ (change in percent purity from time = 0) [1, 20]: −8.6%
- Purity (HPLC area percent) [1, 21]: 84.5%
- Purity (HPLC area percent) [1, 22]: 74.8%
- Δ (change in percent purity from time = 0) [1, 22]: −9.7%
- Purity (HPLC area percent) [1, 23]: 69.5%
- Δ (change in percent purity from time = 0) [1, 23]: −15.0%
- Purity (HPLC area percent) [1, 24]: 56.5%
- Δ (change in percent purity from time = 0) [1, 24]: −28.0%
- Purity (HPLC area percent) [1, 25]: 50.4%
- Δ (change in percent purity from time = 0) [1, 25]: −34.2%
- Purity (HPLC area percent) [1, 26]: 84.5%
- decrease in purity [1, 27]: 8.6%
- decomposition on storage ([1]; stored at room temperature or at refrigerated temperature (about 2 to about 8° C.)): decompose significantly
- Purity (HPLC area percent) [2, 17]: 91.5%
- Δ (change in percent purity from time = 0) [2, 17]: 0.2%
- Δ (change in percent purity from time = 0) [2, 18]: −0.5%
- Purity (HPLC area percent) [2, 19]: 92.8%
- Δ (change in percent purity from time = 0) [2, 19]: 1.5%
- Purity (HPLC area percent) [2, 20]: 90.1%
- Δ (change in percent purity from time = 0) [2, 20]: −1.2%
- Purity (HPLC area percent) [2, 21]: 91.3%
- Purity (HPLC area percent) [2, 22]: 89.2%
- Δ (change in percent purity from time = 0) [2, 22]: −2.1%
- Purity (HPLC area percent) [2, 23]: 84.4%
- Δ (change in percent purity from time = 0) [2, 23]: −6.9%
- Purity (HPLC area percent) [2, 24]: 82.5%
- Δ (change in percent purity from time = 0) [2, 24]: −8.8%
- Purity (HPLC area percent) [2, 25]: 65.0%
- Δ (change in percent purity from time = 0) [2, 25]: −26.3%
- Purity (HPLC area percent) [2, 26]: 91.3%
- decrease in purity [2, 27]: 1.2%
- decrease in purity ([2]; stored at room temperature for 12 months, listed as trihydrochloride salt, Trihydrochloride): 26.3%
